For 18 molecules, T/C results are on record in PubChem BioAssay AID194 (DTP/NCI, 2004).

For this assay, the system named is BDF1 mice, B16 melanoma s.c., survival/tumor T/C. The assay is described as follows: NCI In Vivo Anticancer Drug Screen. Data for tumor model B16 Melanoma (subcutaneous) in B6D2F1 (BDF1) mice. Here is the method:
The antitumor activity of compounds was measured in mice bearing transplantable tumors. Survival or tumor size were measured and the results are expressed as the measurement made in the treated group (T) divided by the measurement made in the vehicle treated control group (C). The tumor model used in this assay is B16 Melanoma (subcutaneous) in B6D2F1 (BDF1) mice

The mark [1] stands for this setting: endpoint: median survival time, dose: 0.06 mg/kg/injection, schedule: Q01DX009 (ip), vehicle: saline, higher = longer survival.
Where [2] appears, read: endpoint: median survival time, dose: 0.12 mg/kg/injection, schedule: Q01DX009 (ip), vehicle: saline, higher = longer survival.
Setting [3] is: endpoint: median survival time, dose: 0.5 mg/kg/injection, schedule: Q01DX009 (ip), vehicle: saline, higher = longer survival.
Setting [4] is: endpoint: median survival time, dose: 1.0 mg/kg/injection, schedule: Q01DX009 (ip), vehicle: saline, higher = longer survival.
Setting [5] is: endpoint: median survival time, dose: 12.5 mg/kg/injection, schedule: Q01DX009 (ip), vehicle: saline with Tween-80, higher = longer survival.
The mark [6] stands for this setting: endpoint: median survival time, dose: 25.0 mg/kg/injection, schedule: Q01DX009 (ip), vehicle: saline with Tween-80, higher = longer survival.
Setting [7] is: endpoint: median survival time, dose: 50.0 mg/kg/injection, schedule: Q01DX009 (ip), vehicle: saline with Tween-80, higher = longer survival.
[8] abbreviates: endpoint: median survival time, dose: 100.0 mg/kg/injection, schedule: Q01DX009 (ip), vehicle: saline with Tween-80, higher = longer survival.
The mark [9] stands for this setting: endpoint: median survival time, dose: 2.0 mg/kg/injection, schedule: Q01DX009 (ip), vehicle: saline, higher = longer survival.
Where [10] appears, read: endpoint: median survival time, dose: 4.0 mg/kg/injection, schedule: Q01DX009 (ip), vehicle: saline, higher = longer survival.

Several values for one entry are separate records, joined by “and”; a condition that tells them apart may be missing. Equal values may be shown once. Records with an inconclusive call do not appear.

For `O=c1[nH]c(=O)n(C2CC(O)C(CO)O2)cc1C(F)(F)F` (configuration not stated), the T/C is 103 % of control (endpoint: median survival time, dose: 10.0 mg/kg/injection, schedule: Q01DX009 (ip), vehicle: saline, higher = longer survival); 104 % of control and 111 % of control (endpoint: median survival time, dose: 20.0 mg/kg/injection, schedule: Q01DX009 (ip), vehicle: saline, higher = longer survival); 106 % of control (endpoint: median survival time, dose: 40.0 mg/kg/injection, schedule: Q01DX009 (ip), vehicle: saline, higher = longer survival); 89 % of control (endpoint: median survival time, dose: 80.0 mg/kg/injection, schedule: Q01DX009 (ip), vehicle: saline, higher = longer survival); 111 % of control (endpoint: median survival time, dose: 160.0 mg/kg/injection, schedule: Q01DX009 (ip), vehicle: saline, higher = longer survival).

Take `CN(C)CCCN1c2ccccc2Sc2ccc(Cl)cc21`: the T/C is, setting by setting: under setting [1], 98 % of control; under setting [2], 92 % of control; under setting [3], 97 % of control; under setting [4], 98 % of control.

In the case of `CC[C@]1(O)C[C@H]2CN(CCc3c([nH]c4ccccc34)[C@@](C(=O)OC)(c3cc4c(cc3OC)N(C=O)[C@H]3[C@@](O)(C(=O)OC)[C@H](OC(C)=O)[C@]5(CC)C=CCN6CC[C@]43[C@@H]65)C2)C1`, the T/C is, setting by setting: under setting [1], 100 % of control and 115 % of control; under setting [2], 104 % of control and 121 % of control; (endpoint: median survival time, dose: 0.13 mg/kg/injection, schedule: Q01DX009 (ip), vehicle: saline, higher = longer survival) 100 % of control; (endpoint: median survival time, dose: 0.7 mg/kg/injection, schedule: Q04DX003 (ip), vehicle: saline, higher = longer survival) 93 % of control; (endpoint: median survival time, dose: 1.0 mg/kg/injection, schedule: Q04DX003 (ip), vehicle: saline, higher = longer survival) 100 % of control; (endpoint: median survival time, dose: 1.5 mg/kg/injection, schedule: Q04DX003 (ip), vehicle: saline, higher = longer survival) 113 % of control.

`O=NN(CCF)C(=O)NC1CCS(=O)(=O)CC1`: the T/C was 156 % of control (endpoint: median survival time, dose: 24.0 mg/kg/injection, schedule: Q01DX001 (ip), vehicle: other, higher = longer survival) and 175 % of control (endpoint: median survival time, dose: 32.0 mg/kg/injection, schedule: Q01DX001 (ip), vehicle: other, higher = longer survival).

On to `O=C(O)CCNSc1ccccc1[N+](=O)[O-]`, for which the T/C runs as follows: under setting [5], 105 % of control; under setting [6], 109 % of control; under setting [7], 114 % of control; under setting [8], 100 % of control.

Turning to `CCC1=C(C[C@H]2NCCc3cc(OC)c(OC)cc32)C[C@H]2c3cc(OC)c(OC)cc3CCN2C1`, the T/C by setting is: (endpoint: median survival time, dose: 2.0 mg/kg/injection, schedule: Q01DX005 (ip), vehicle: saline, higher = longer survival) 87 % of control; (endpoint: median survival time, dose: 4.0 mg/kg/injection, schedule: Q01DX005 (ip), vehicle: saline, higher = longer survival) 93 % of control; (endpoint: median survival time, dose: 8.0 mg/kg/injection, schedule: Q01DX005 (ip), vehicle: saline, higher = longer survival) 110 % of control; (endpoint: median survival time, dose: 16.0 mg/kg/injection, schedule: Q01DX005 (ip), vehicle: saline, higher = longer survival) 114 % of control.

For `O=NN(CCF)C(=O)NC1C(O)CCCC1O` (configuration not stated), the T/C (endpoint: median survival time, dose: 3.11 mg/kg/injection, schedule: Q01DX007 (ip), vehicle: water, higher = longer survival) is 98 % of control; the T/C (endpoint: median survival time, dose: 5.18 mg/kg/injection, schedule: Q01DX007 (ip), vehicle: water, higher = longer survival) was 103 % of control; the T/C (endpoint: median survival time, dose: 8.64 mg/kg/injection, schedule: Q01DX007 (ip), vehicle: water, higher = longer survival) was 112 % of control; the T/C (endpoint: median survival time, dose: 14.4 mg/kg/injection, schedule: Q01DX007 (ip), vehicle: water, higher = longer survival) was 123 % of control.

With `COC12C(COC(N)=O)C3=C(C(=O)C(C)=C(N)C3=O)N1CC1C2N1C` (configuration not stated), the T/C (endpoint: median survival time, dose: 1.0 mg/kg/injection, schedule: Q01DX009 (ip), vehicle: Klucel (hydroxypropylcellulose) (HPC), higher = longer survival) is 106 % of control; the T/C (endpoint: median survival time, dose: 2.0 mg/kg/injection, schedule: Q01DX009 (ip), vehicle: Klucel (hydroxypropylcellulose) (HPC), higher = longer survival) is 91 % of control; the T/C (endpoint: median survival time, dose: 8.0 mg/kg/injection, schedule: Q01DX009 (ip), vehicle: Klucel (hydroxypropylcellulose) (HPC), higher = longer survival) was 109 % of control.

Regarding `Cc1c[n+]2c3ccccc3c3ccccc3c2s1`, the T/C (endpoint: median survival time, dose: 20.0 mg/kg/injection, schedule: Q01DX009 (ip), vehicle: Klucel (hydroxypropylcellulose) (HPC), higher = longer survival) was 121 % of control.

For the molecule `N[C@@H](Cc1ccc(N(CCCl)CCCl)cc1)C(=O)O`, the T/C runs as follows: under setting [4], 93 % of control; under setting [9], 150 % of control; under setting [10], 123 % of control; (endpoint: median tumor weight (est.), dose: 1.25 mg/kg/injection, schedule: Q01DX009 (ip), vehicle: Klucel (hydroxypropylcellulose) (HPC), higher = larger tumour) 63 % of control; (endpoint: median tumor weight (est.), dose: 2.5 mg/kg/injection, schedule: Q01DX009 (ip), vehicle: Klucel (hydroxypropylcellulose) (HPC), higher = larger tumour) 44 % of control; (endpoint: median tumor weight (est.), dose: 5.0 mg/kg/injection, schedule: Q01DX009 (ip), vehicle: Klucel (hydroxypropylcellulose) (HPC), higher = larger tumour) 18 % of control.

For the molecule `Cc1[nH]nc(-c2ccon2)c1N=O`, the T/C was 91 % of control under setting [5], 96 % of control under setting [6], 100 % of control under setting [7] and 87 % of control under setting [8].

Consider `COC(=O)C[C@](O)(CCCC(C)(C)O)C(=O)O[C@@H]1C(OC)=C[C@]23CCCN2CCc2cc4c(cc2[C@H]13)OCO4`, for which the T/C reads like this: (endpoint: median survival time, dose: 0.25 mg/kg/injection, schedule: Q01DX009 (ip), vehicle: acid diluted with saline, higher = longer survival) 118 % of control; (endpoint: median survival time, dose: 0.5 mg/kg/injection, schedule: Q01DX009 (ip), vehicle: acid diluted with saline, higher = longer survival) 100 % of control; (endpoint: median survival time, dose: 0.7 mg/kg/injection, schedule: Q01DX009 (ip), vehicle: acid diluted with saline, higher = longer survival) 101 % of control; (endpoint: median survival time, dose: 1.0 mg/kg/injection, schedule: Q01DX009 (ip), vehicle: acid diluted with saline, higher = longer survival) 103 % of control; (endpoint: median survival time, dose: 1.5 mg/kg/injection, schedule: Q01DX009 (ip), vehicle: acid diluted with saline, higher = longer survival) 101 % of control.

As to `Cc1cc(OCc2nc(N)nc(N)c2-c2ccc(Cl)c(Cl)c2)ccc1NS(=O)(=O)c1cccc(S(=O)(=O)F)c1`, the T/C by setting is: (endpoint: median survival time, dose: 117.0 mg/kg/injection, schedule: Q04DX003 (ip), vehicle: saline, higher = longer survival) 95 % of control; (endpoint: median survival time, dose: 176.0 mg/kg/injection, schedule: Q04DX003 (ip), vehicle: saline, higher = longer survival) 118 % of control.

As for `Cc1c(N)nc(C(CC(N)=O)NCC(N)C(N)=O)nc1C(=O)NC(C(=O)NC(C)C(O)CC(=O)NC(C(=O)NC(OC1OC(C)C(N)C(O)C1O)C(O)c1nc(-c2nc(C(=O)NCCCC(N)CC(=O)NCCCNCCCCN)cs2)cs1)C(C)O)C(OC1OC(CO)C(O)C(O)C1OC1OC(CO)C(O)C(OC(N)=O)C1O)c1cnc[nH]1` (configuration not stated), the T/C is 173 % of control under setting [4], 174 % of control under setting [9] and 160 % of control under setting [10].

As for `COc1cc2c(c(OC)c1OC)-c1cc3c(cc1[C@@H](OC(C)=O)[C@@H]1COC(=O)[C@H]1C2)OCO3`, the T/C runs as follows: (endpoint: median survival time, dose: 0.62 mg/kg/injection, schedule: Q01DX009 (ip), vehicle: Klucel (hydroxypropylcellulose) (HPC), higher = longer survival) 100 % of control; (endpoint: median survival time, dose: 1.25 mg/kg/injection, schedule: Q01DX009 (ip), vehicle: Klucel (hydroxypropylcellulose) (HPC), higher = longer survival) 88 % of control and 89 % of control; (endpoint: median survival time, dose: 2.5 mg/kg/injection, schedule: Q01DX009 (ip), vehicle: Klucel (hydroxypropylcellulose) (HPC), higher = longer survival) 97 % of control; (endpoint: median survival time, dose: 5.0 mg/kg/injection, schedule: Q01DX009 (ip), vehicle: Klucel (hydroxypropylcellulose) (HPC), higher = longer survival) 105 % of control and 116 % of control; (endpoint: median survival time, dose: 10.0 mg/kg/injection, schedule: Q01DX009 (ip), vehicle: Klucel (hydroxypropylcellulose) (HPC), higher = longer survival) 109 % of control.

Regarding `O=[N+]([O-])c1nccn1CC(O)CO` (configuration not stated), the T/C (endpoint: median survival time, dose: 1000.0 mg/kg/injection, schedule: Q01DX001 (ip), vehicle: saline, higher = longer survival) is 91 % of control and the T/C (endpoint: median survival time, dose: 2500.0 mg/kg/injection, schedule: Q01DX001 (ip), vehicle: saline, higher = longer survival) is 85 % of control.

With `CCC(=O)OCC(=O)[C@]1(O)Cc2c(O)c3c(c(O)c2[C@@H](OC2CC(N)C(O)C(C)O2)C1)C(=O)c1c(OC)cccc1C3=O` (some centres not stated), the T/C (endpoint: median survival time, dose: 0.25 mg/kg/injection, schedule: Q01DX009 (ip), vehicle: saline, higher = longer survival) is 90 % of control; the T/C under setting [3] was 118 % of control; the T/C under setting [4] was 102 % of control.

With `NC(=O)c1ccc[n+](Cc2c(Cl)cccc2Cl)c1`, the T/C was 106 % of control (endpoint: median survival time, dose: 0.75 mg/kg/injection, schedule: Q01DX009 (ip), vehicle: saline, higher = longer survival); 98 % of control (endpoint: median survival time, dose: 3.0 mg/kg/injection, schedule: Q01DX009 (ip), vehicle: saline, higher = longer survival); 102 % of control and 117 % of control (endpoint: median survival time, dose: 6.0 mg/kg/injection, schedule: Q01DX009 (ip), vehicle: saline, higher = longer survival); 106 % of control and 114 % of control (endpoint: median survival time, dose: 12.0 mg/kg/injection, schedule: Q01DX009 (ip), vehicle: saline, higher = longer survival).
